Measurements as given in patent publication US20070015810A1, “5(R)-Substituted Pyrazoline Compounds, their Preparation and Use as Medicaments” (LABORATORIOS DEL DR. ESTEVE, S.A., priority 2005, published 2007).
Where a name gives a salt, the structure may show the parent alone.

What was measured:
[1] = Effect of continued administration on body weight in rats; type: in vivo; details: 10 mg/kg i.p. once daily
Procedure: V. Determination of the Effect of Continued Administration of the Inventive Compounds on Body Weight in Rats
The weight of the animals was measured for 36 days, and the data grouped into 3 periods for analysis. Period 1, days 1-8 (period for adaptation of the animals to the environmental conditions: one week without treatment plus first day of treatment); Period 2, days 9-22 (treatment period: two weeks); Period 3, days 23-36 (escape treatment period: two weeks). The administration of the drugs started on day 8, immediately after the animal was weighted, and finished on day 21. The treatment period ranges between one day after first administration and one day after last administration. The drugs were administered i.p. once daily. For comparative purposes, absolute weights were transformed into relative percentages (each weight was divided by that of day 8 and multiplied by 100). […] All results are expressed as mean±S.E.M.
The dependence of body-weight (expressed as a percentage relative to day 8) on time (number of days after inclusion in the study) and treatment was assessed by a two-way (time, treatment) analysis of variance (ANOVA) with repeated measures on the time factor. […] The differences between pairs of curves (treatments) were analyzed using appropriate contrasts within the ANOVA test. […]

[2] = Chronic administration in animals made obese by a simplified cafeteria diet; type: in vivo, rats
CB1-receptor = CB1-receptor (UniProt P20272); test: In-vitro determination of affinity (binding) to the CB1-receptor, radioligand [3H]-CP55940; details: Pharmacological methods part I
Text: 1. In-vitro determination of affinity to CB1CB2-Receptors
The in-vitro determination of the affinity of the inventive substituted pyrazoline compounds to CB1/CB2-Rezeptors is carded out as described in the publication of Ruth A. Ross, Heather C. Brockie et al., “Agonist-inverse agonist characterization at CB1 and CB2 cannabinoid receptors of L-759633, L759656 and AM630”, British Journal of Pharmacology, 126, 665-672, (1999), whereby the transfected human CB1 and CB2 receptors of Receptor Biology, Inc. are used. The radioligand used for both receptors is [^3H]-CP55940. The respective parts of the description is hereby incorporated by reference and forms part of the present disclosure. […]
Binding affinity to CB1 receptor was evaluated according to a modification of the method described by Govaerts et al., Eur J Pharmac Sci 23, 233-243 (2004). […]
Briefly, cerebellum from male wistar rats (250-300 g) were carefully dissected on ice and homogenates were prepared with Potter-Helveheim in a cold 50 mM Tris-HCl solution containing 5 mM MgCl2, 1 mM EDTA and 0.25 M sucrose, pH 7.4. […] Total protein concentration was determined using the Bio-Rad Lowry method based kit. […] Compounds were present at various concentrations and the non specific binding was determined in the presence of 10 μM HU-210. […]
Binding data were analyzed by non-linear regression with the software GraphPad Prism Version 3.03. […]

[3] = molecular target: T1, recombinant human cannabinoid 1 receptor (CB1) (Homo sapiens, UniProt P21554); test: [35S]GTPγS binding assay, antagonism to CB1-receptor in CHO cell membranes; type: biochemical; details: compound 1 μM versus agonist WIN 55,212-2; 100% = difference between maximal WIN 55,212-2 effect alone and with Rimonabant (1 μM)
T1 construct: expressed in transfected cells; membrane preparation
Procedure: VI. In Vitro Determination of Antagonism to CB1-Receptor
Chinese hamster ovary (CHO) cells stably expressing recombinant human cannabinoid 1 receptor (CB1) were cultured in nutrient mixture Ham's F 12 supplemented with 10% heat-inactivated fetal bovine serum, 2 mM L-glutamine, 50 U/ml penicillin, 50 U/ml streptomycin and 0.5 mg/ml geneticin. In order to obtain cells, culture flasks were washed twice with phosphate buffered saline and scraped. Then, cells were collected by centrifugation (200×g, 10 min) and stored dry at −80° C. Cells were homogenized in ice-cold 20 mM HEPES, 10 mM EDTA (pH 7.5) and centrifuged at 40,000×g for 15 min at 4° C. The membrane pellet was resuspended in 20 mM HEPES, 0.1 mM EDTA (pH 7.5) and centrifuged for 15 min at 4° C. The final membrane pellet was resuspended in 20 mM HEPES, 0.1 mM EDTA (pH 7.5), and divided in aliquots and stored at −80° C. until use.
The reaction was performed in 96-well plates. […] Radioactivity was determined using a Wallac Microbeta Trilux. […]
The antagonism of the pyrazoline compounds of general formula I to the CB1-receptor was determined according to the method described in Pharmacological methods, part VI (table 2).

T1 sequence (P21554 whole entry): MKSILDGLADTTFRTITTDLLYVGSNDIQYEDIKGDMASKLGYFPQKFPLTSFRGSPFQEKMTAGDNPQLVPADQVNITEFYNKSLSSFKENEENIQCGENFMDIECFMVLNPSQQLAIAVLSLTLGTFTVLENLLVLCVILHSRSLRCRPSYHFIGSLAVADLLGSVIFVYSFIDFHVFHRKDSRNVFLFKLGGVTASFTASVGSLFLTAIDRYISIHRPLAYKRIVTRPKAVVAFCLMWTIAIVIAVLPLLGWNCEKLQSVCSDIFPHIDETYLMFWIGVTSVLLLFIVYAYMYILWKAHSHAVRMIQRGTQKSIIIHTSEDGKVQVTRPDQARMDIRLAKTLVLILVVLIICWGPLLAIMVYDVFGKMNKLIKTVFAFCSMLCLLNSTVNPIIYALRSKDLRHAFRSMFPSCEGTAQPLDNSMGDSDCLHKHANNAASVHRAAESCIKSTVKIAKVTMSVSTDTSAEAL

For `O=C(NN1CCCCC1)C1=NN(c2ccc(Cl)cc2Cl)[C@@H](c2ccc(Cl)cc2)C1` [A, (R)-N-piperidinyl-5-(4chlorophenyl)-1-(2,4-dichlorophenyl)-4,5-dihydro-1H-pyrazole-3-carboxamide], the “effect on body weight” value ([1]; days 8-21, FIG. 1) was “stronger action than the racemate”, the “recovery of weight after treatment” value ([1]; escape period days 23-36, FIG. 1) was “slower recovery of weight” and the “body weight on chronic administration” value ([2]; animals made obese by cafeteria diet (high-fat diet, chocolate, ground peanuts)) was “significantly decreased body weight”. For the same compound, the “body weight after 28 days of drug treatment versus vehicle-treated controls” value ([2]; obese rats, 28 days of treatment) was “lower than those of the vehicle-treated controls”, the IC50 (CB1-receptor) was 16.1 nM and the “Antagonism [%]” value [3] was 106%.

With `O=C(NN1CCCCC1)C1=NN(c2ccc(Cl)cc2Cl)[C@@H](c2ccc(Cl)cc2)C1` [A-Hydrochloride] the IC50 (CB1-receptor) was 20 nM and the “Antagonism [%]” value [3] was 113%.
